Like-named read-outs stand apart in the source and are kept apart here.
Columns and labels:
LS513 = experiment: In vitro inhibition of proliferation assay (WST-8), LS513; type: cell-based; settings: Data Set I, experiment Sep. 4, 2010; 72 hr; read-out: IC50 Values after 72 hr drug treatment, LS513
Protocol: (§1) At day 1, the cells were seeded. The media was aspirated and the T-225 culture flasks of cells was rinsed with 30 mL PBS −/. PBS was aspirated and 6 mL of 0.25% Trypsin-EDTA was added to each flask. The flasks were incubated at 37C, 5% CO2 for 2-5 minutes. Adherent cells were dislodged by hitting flask and trypsin was neutralized by adding 14 mL culture medium. The cell suspension was mixed and transferred to a 50 mL conical tube. The cells were spun down at 1200 rpm, 5 min, room temperature. The resultant cell pellet was resuspended in 12 mL of culture medium. The cells were counted in a hemacytometer. Cells were seeded at appropriate cell densities into 96-well flat-bottom, clear plates and incubated overnight at 37° C., 5% CO2 to allow cells to attach. Plating volume was 80 uL/well. 80 uL/well of culture medium was utilized as the “no cell” control.
(§2) At day 2, the test samples were added to the cells. The test samples were diluted in culture medium to a 9× stock concentration in Column 2 of a round-bottom 96-well plate. 3× serial dilutions were made from Column 2 to Column 11 with a multi-channel pipettor. 10 uL/well of the above samples was added in duplicate to the appropriate wells of the seeded plate. The total volume in the wells was about 90 uL/well. […]
(§3) At day 5, proliferation readout occurred. […] The plates were measured for absorbance at OD 450 nm. […]

BT474 = experiment: In vitro inhibition of proliferation assay (WST-8), BT474; type: cell-based; settings: 72 hr, read-out: IC50 Values after 72 hr drug treatment, BT474
Protocol: as §1
(§4) Cell plating density examples include: • BT474 (high Her2)—20,000 cells/well in F12k/DMEM (50/50), 10% FBS, P/S • MDA-MB-468 (Her2 negative)—6,000 cells/well in F12k/DMEM (50/50), 10% FBS, P/S • HCC1954—5,000 cells/well in RPMI 1640, 10% FBS, P/S • SKOV-3—6,000 cells/well in RPMI 1640, 10% FBS, P/S • HT29—20,000 cells/well in McCoy's 5A, 10% FBS, P/S
(§5) At day 2, the test samples were added to the cells. The test samples were diluted in culture medium to a 9× stock concentration in Column 2 of a round-bottom 96-well plate. 3× serial dilutions were made from Column 2 to Column 11 with a multi-channel pipettor. 10 uL/well of the above samples was added in duplicate to the appropriate wells of the seeded plate. The total volume in the wells was about 90 uL/well. 10 uL/well of culture medium was added to avoid edge effects for sample wells. Media Control wells were included in the inner wells where no sample was added (just 10 uL/well of culture medium) to be used in proliferation calculations. The plates were incubated at 37° C., 5% CO2 for 72 hrs.
as §3

MDA-MB-468 = experiment: In vitro inhibition of proliferation assay (WST-8), MDA-MB-468; type: cell-based; settings: Data Set II, experiment Oct. 8, 2010; 72 hr; read-out: IC50 Values after 72 hr drug treatment, MDA-MB-468
Protocol: as §1, §4
(§6) At day 2, the test samples were added to the cells. […]
as §3

ZR-75-30 = experiment: In vitro inhibition of proliferation assay (WST-8), ZR-75-30; type: cell-based; settings: Data Set I, experiment Sep. 4, 2010; 72 hr; read-out: IC50 Values after 72 hr drug treatment, ZR-75-30
Protocol: as §1, §2, §3

HCC1954 = experiment: In vitro inhibition of proliferation assay (WST-8), HCC1954; type: cell-based, human; settings: 72 hr, read-out: IC50 Values after 72 hr drug treatment, HCC1954
Protocol: as §1, §4, §6, §3

SKOV-3 = experiment: In vitro inhibition of proliferation assay (WST-8), SKOV-3; type: cell-based; settings: 72 hr, read-out: IC50 Values after 72 hr drug treatment, SKOV-3
Protocol: as §1, §4, §5, §3

NCI-N87 = experiment: In vitro inhibition of proliferation assay (WST-8), NCI-N87; type: cell-based; settings: Data Set I, experiment Sep. 4, 2010; 72 hr; read-out: IC50 Values after 72 hr drug treatment, NCI-N87
Protocol: as §1, §2, §3

HT29 = experiment: In vitro inhibition of proliferation assay (WST-8), HT29; type: cell-based; settings: Data Set II, experiment Sep. 24, 2010; 72 hr; read-out: IC50 Values after 72 hr drug treatment, HT29
Protocol: as §1, §4, §6, §3

MDA-MB-175 = experiment: In vitro inhibition of proliferation assay (WST-8), MDA-MB-175; type: cell-based; settings: Data Set I, experiment Sep. 13, 2010
Protocol: as §1, §2, §3

[1] = Data Set I, experiment Sep. 4, 2010
[2] = Data Set I, experiment Sep. 13, 2010
[3] = Data Set II, experiment Oct. 8, 2010

Q: How did the IC50 (LS513) turn out when Dolastatin was run?
A: Its IC50 is 0.2 nM.

Q: And the IC50 (BT474; [1])?
A: Its IC50 is 0.1 nM.

Q: And the IC50 (BT474; [2])?
A: Its IC50 is 0.1 nM.

Q: And the IC50 (BT474; Data Set II, experiment Sep. 24, 2010)?
A: Its IC50 is 2.5 nM.

Q: And the IC50 (MDA-MB-468)?
A: Its IC50 is < 0.01 nM.

Q: What about the IC50 (ZR-75-30) of the same substance?
A: Its IC50 is > 30 nM.

Q: What about the IC50 (HCC1954; [1]) of the same substance?
A: The IC50 was 0.06 nM.

Q: What about the IC50 (HCC1954; [3]) of the same substance?
A: Its IC50 is 0.04 nM.

Q: What about the IC50 (SKOV-3; [1]) of the same substance?
A: The IC50 was 0.2 nM.

Q: And the IC50 (SKOV-3; [2])?
A: The IC50 was 0.1 nM.

Q: What about the IC50 (SKOV-3; [3]) of the same substance?
A: The IC50 was 0.2 nM.

Q: And the IC50 (NCI-N87)?
A: Its IC50 is > 30 nM.

Q: What about the IC50 (HT29) of the same substance?
A: The IC50 was 4 nM.

Q: What about the “IC50 Values after 72 hr drug treatment, MDA-MB-175” value (MDA-MB-175) of the same substance?
A: Its value is “no fit”.
